# Assay results: patent US10004701B2, “Methods and compositions for treating infection” (UNIVERSITY OF ROCHESTER, priority 2012, dated 2018)
# Counter-ions that a name gives are not always drawn. Like-named read-outs stand apart in the source and are kept apart here.
# Key:
# Assay in all cases: AK assay 384-well format, Prestwick library screening
# [1] = system: A. baumannii strain 98-37-09; type: cell-based, Acinetobacter baumannii; settings: Acinetobacter baumannii, 983709, 3 h, 50 μM final drug concentration
# E. faecium = type: cell-based, Enterococcus faecium; settings: Enterococcus faecium, 3 h, 50 μM final drug concentration
# P. aeruginosa = type: cell-based, Pseudomonas aeruginosa; settings: Pseudomonas aeruginosa, 3 h, 50 μM final drug concentration
# E. coli = type: cell-based, Escherichia coli; settings: Escherichia coli, 3 h, 50 μM final drug concentration
# E. cloacae = type: cell-based, Enterobacter cloacae; settings: Enterobacter cloacae, 3 h, 50 μM final drug concentration
# [2] = system: S. aureus strain USA300-0114; type: cell-based, Staphylococcus aureus; settings: Staphylococcus aureus, USA300, 3 h, 50 μM final drug concentration
# K. pneumoniae = type: cell-based, Klebsiella pneumoniae; settings: Klebsiella pneumoniae, 3 h, 50 μM final drug concentration
# [3] = planktonic, […], read-out: AK-based Prestwick Library Screening Results, A. baumannii (fold increase in extracellular AK activity)
# [4] = planktonic, […], read-out: AK-based Prestwick Library Screening Results, E. faecium (fold increase in extracellular AK activity)
# [5] = planktonic, […], read-out: AK-based Prestwick Library Screening Results, P. aeruginosa (fold increase in extracellular AK activity)
# [6] = planktonic, […], read-out: AK-based Prestwick Library Screening Results, E. coli (fold increase in extracellular AK activity)
# [7] = planktonic, […], read-out: AK-based Prestwick Library Screening Results, E. cloacae (fold increase in extracellular AK activity)
# [8] = planktonic, […], read-out: AK-based Prestwick Library Screening Results, S. aureus (fold increase in extracellular AK activity)
# [9] = planktonic, […], read-out: AK-based Prestwick Library Screening Results, K. pneumoniae (fold increase in extracellular AK activity)
structure (smiles),measurement,setting,value
COc1ccc(C[C@H](N)C(=O)N[C@H]2[C@@H](O)[C@H](n3cnc4c(N(C)C)ncnc43)O[C@@H]2CO)cc1 [Puromycin dihydrochloride],fold induction at 50 µM,"[1]; planktonic, cutoff for positive 3-fold increase, read-out: AK-based Prestwick Library Screening Results, A. baumannii (fold increase in extracellular AK activity)",1.6
same,fold induction at 50 µM,"E. faecium; planktonic, cutoff for positive 3-fold increase, read-out: AK-based Prestwick Library Screening Results, E. faecium (fold increase in extracellular AK activity)",1.1
same,fold induction at 50 µM,"P. aeruginosa; planktonic, cutoff for positive 3-fold increase, read-out: AK-based Prestwick Library Screening Results, P. aeruginosa (fold increase in extracellular AK activity)",1
same,fold induction at 50 µM,"E. coli; planktonic, cutoff for positive 3-fold increase, read-out: AK-based Prestwick Library Screening Results, E. coli (fold increase in extracellular AK activity)",1.1
same,fold induction at 50 µM,"E. cloacae; planktonic, cutoff for positive 3-fold increase, read-out: AK-based Prestwick Library Screening Results, E. cloacae (fold increase in extracellular AK activity)",1.4
same,fold induction at 50 µM,"[2]; planktonic, cutoff for positive 3-fold increase, read-out: AK-based Prestwick Library Screening Results, S. aureus (fold increase in extracellular AK activity)",1.1
same,fold induction at 50 µM,"K. pneumoniae; planktonic, cutoff for positive 3-fold increase, read-out: AK-based Prestwick Library Screening Results, K. pneumoniae (fold increase in extracellular AK activity)",1.1
NC(=O)c1cnccn1 [Pyrazinamide],fold induction at 50 µM,"[1]; planktonic A. baumannii, cutoff for positive-scoring molecules 3-fold increase, read-out: AK-based Prestwick Library Screening Results, A. baumannii (increase in extracellular AK activity)",0.9
same,fold induction at 50 µM,"E. faecium; planktonic E. faecium, cutoff for positive-scoring molecules 3-fold increase, read-out: AK-based Prestwick Library Screening Results, E. faecium (increase in extracellular AK activity)",0.8
same,fold induction at 50 µM,"P. aeruginosa; planktonic P. aeruginosa, cutoff for positive-scoring molecules 3-fold increase, read-out: AK-based Prestwick Library Screening Results, P. aeruginosa (increase in extracellular AK activity)",0.8
same,fold induction at 50 µM,"E. coli; planktonic E. coli, cutoff for positive-scoring molecules 3-fold increase, read-out: AK-based Prestwick Library Screening Results, E. coli (increase in extracellular AK activity)",0.9
same,fold induction at 50 µM,"E. cloacae; planktonic E. cloacae, cutoff for positive-scoring molecules 3-fold increase, read-out: AK-based Prestwick Library Screening Results, E. cloacae (increase in extracellular AK activity)",1.2
same,fold induction at 50 µM,"[2]; planktonic S. aureus, cutoff for positive-scoring molecules 3-fold increase, read-out: AK-based Prestwick Library Screening Results, S. aureus (increase in extracellular AK activity)",0.7
same,fold induction at 50 µM,"K. pneumoniae; planktonic K. pneumoniae, cutoff for positive-scoring molecules 3-fold increase, read-out: AK-based Prestwick Library Screening Results, K. pneumoniae (increase in extracellular AK activity)",0.8
Cc1ncc(CO)c(CO)c1O [Pyridoxine hydrochloride],fold induction at 50 µM,[1]; [3],1.4
same,fold induction at 50 µM,E. faecium; [4],1
same,fold induction at 50 µM,P. aeruginosa; [5],1.2
same,fold induction at 50 µM,E. coli; [6],1.4
same,fold induction at 50 µM,E. cloacae; [7],1.7
same,fold induction at 50 µM,[2]; [8],1.3
same,fold induction at 50 µM,K. pneumoniae; [9],1.1
COc1ccc(CN(CCN(C)C)c2ccccn2)cc1 [Pyrilamine maleate],fold induction at 50 µM,"[1]; planktonic A. baumannii, 384-well, […], read-out: AK-based Prestwick Library Screening Results: A. baumannii (increase in extracellular AK activity)",1.1
same,fold induction at 50 µM,"E. faecium; planktonic E. faecium, 384-well, […], read-out: AK-based Prestwick Library Screening Results: E. faecium (increase in extracellular AK activity)",1.2
same,fold induction at 50 µM,"P. aeruginosa; planktonic P. aeruginosa, 384-well, […], read-out: AK-based Prestwick Library Screening Results: P. aeruginosa (increase in extracellular AK activity)",1.1
same,fold induction at 50 µM,"E. coli; planktonic E. coli, 384-well, […], read-out: AK-based Prestwick Library Screening Results: E. coli (increase in extracellular AK activity)",1.4
same,fold induction at 50 µM,"E. cloacae; planktonic E. cloacae, 384-well, […], read-out: AK-based Prestwick Library Screening Results: E. cloacae (increase in extracellular AK activity)",1.4
same,fold induction at 50 µM,"[2]; planktonic S. aureus, 384-well, […], read-out: AK-based Prestwick Library Screening Results: S. aureus (increase in extracellular AK activity)",1.4
same,fold induction at 50 µM,"K. pneumoniae; planktonic K. pneumoniae, 384-well, […], read-out: AK-based Prestwick Library Screening Results: K. pneumoniae (increase in extracellular AK activity)",1
CCc1nc(N)nc(N)c1-c1ccc(Cl)cc1 [Pyrimethamine],fold induction at 50 µM,"[1]; 384-well format, cutoff for positive-scoring molecules 3-fold increase, read-out: AK-based Prestwick Library Screening Results, A. baumannii (increase in extracellular AK activity)",2.5
same,fold induction at 50 µM,"E. faecium; 384-well format, cutoff for positive-scoring molecules 3-fold increase, read-out: AK-based Prestwick Library Screening Results, E. faecium (increase in extracellular AK activity)",1
same,fold induction at 50 µM,"P. aeruginosa; 384-well format, cutoff for positive-scoring molecules 3-fold increase, read-out: AK-based Prestwick Library Screening Results, P. aeruginosa (increase in extracellular AK activity)",0.9
same,fold induction at 50 µM,"E. coli; 384-well format, cutoff for positive-scoring molecules 3-fold increase, read-out: AK-based Prestwick Library Screening Results, E. coli (increase in extracellular AK activity)",1.4
same,fold induction at 50 µM,"E. cloacae; 384-well format, cutoff for positive-scoring molecules 3-fold increase, read-out: AK-based Prestwick Library Screening Results, E. cloacae (increase in extracellular AK activity)",1.3
same,fold induction at 50 µM,"[2]; 384-well format, cutoff for positive-scoring molecules 3-fold increase, read-out: AK-based Prestwick Library Screening Results, S. aureus (increase in extracellular AK activity)",0.7
same,fold induction at 50 µM,"K. pneumoniae; 384-well format, cutoff for positive-scoring molecules 3-fold increase, read-out: AK-based Prestwick Library Screening Results, K. pneumoniae (increase in extracellular AK activity)",0.7
CCC1(CC)C(=O)C=CNC1=O [Pyrithyldione],fold induction at 50 µM,[1]; [3],0.5
same,fold induction at 50 µM,E. faecium; [4],0.8
same,fold induction at 50 µM,P. aeruginosa; [5],0.6
same,fold induction at 50 µM,E. coli; [6],0.7
same,fold induction at 50 µM,E. cloacae; [7],0.7
same,fold induction at 50 µM,[2]; [8],0.6
same,fold induction at 50 µM,K. pneumoniae; [9],0.6
Cc1cc(/C=C/c2ccc3cc(N(C)C)ccc3[n+]2C)c(C)n1-c1ccccc1 [Pyrvinium pamoate],fold induction at 50 µM,"[1]; planktonic A. baumannii, positive cutoff 3-fold increase, read-out: AK-based Prestwick library screening result, A. baumannii (fold increase in extracellular AK activity)",0.9
same,fold induction at 50 µM,"E. faecium; planktonic E. faecium, positive cutoff 3-fold increase, read-out: AK-based Prestwick library screening result, E. faecium (fold increase in extracellular AK activity)",1.5
same,fold induction at 50 µM,"P. aeruginosa; planktonic P. aeruginosa, positive cutoff 3-fold increase, read-out: AK-based Prestwick library screening result, P. aeruginosa (fold increase in extracellular AK activity)",0.7
same,fold induction at 50 µM,"E. coli; planktonic E. coli, positive cutoff 3-fold increase, read-out: AK-based Prestwick library screening result, E. coli (fold increase in extracellular AK activity)",0.8
same,fold induction at 50 µM,"E. cloacae; planktonic E. cloacae, positive cutoff 3-fold increase, read-out: AK-based Prestwick library screening result, E. cloacae (fold increase in extracellular AK activity)",13.2
same,fold induction at 50 µM,"[2]; planktonic S. aureus, positive cutoff 3-fold increase, read-out: AK-based Prestwick library screening result, S. aureus (fold increase in extracellular AK activity)",1.4
same,fold induction at 50 µM,"K. pneumoniae; planktonic K. pneumoniae, positive cutoff 3-fold increase, read-out: AK-based Prestwick library screening result, K. pneumoniae (fold increase in extracellular AK activity)",0.8
O=c1c(O)c(-c2ccc(O)c(O)c2)oc2cc(O)cc(O)c12 [Quercetine dihydrate],fold induction at 50 µM,"[1]; planktonic A. baumannii, […], read-out: AK-based Prestwick Library Screening Results, A. baumannii (increase in extracellular AK activity)",0.4
same,fold induction at 50 µM,"E. faecium; planktonic E. faecium, […], read-out: AK-based Prestwick Library Screening Results, E. faecium (increase in extracellular AK activity)",0.8
same,fold induction at 50 µM,"P. aeruginosa; planktonic P. aeruginosa, […], read-out: AK-based Prestwick Library Screening Results, P. aeruginosa (increase in extracellular AK activity)",0.6
same,fold induction at 50 µM,"E. coli; planktonic E. coli, […], read-out: AK-based Prestwick Library Screening Results, E. coli (increase in extracellular AK activity)",0.7
same,fold induction at 50 µM,"E. cloacae; planktonic E. cloacae, […], read-out: AK-based Prestwick Library Screening Results, E. cloacae (increase in extracellular AK activity)",0.9
same,fold induction at 50 µM,"[2]; planktonic S. aureus, […], read-out: AK-based Prestwick Library Screening Results, S. aureus (increase in extracellular AK activity)",0.1
same,fold induction at 50 µM,"K. pneumoniae; planktonic K. pneumoniae, […], read-out: AK-based Prestwick Library Screening Results, K. pneumoniae (increase in extracellular AK activity)",0.6
